This note sets out measurements from patent US20100112012A1, “MODULATION OF IMMUNE RESPONSES” (CLEVELAND CLINIC FOUNDATION, priority 2005, published 2010).

In data set [1] the test system is p53-deficient cells. The data set can be described thus: Survival of isogenic pairs of tumor cells differing in p53 expression. Particulars: isogenic pairs of cell lines, shRNA-mediated p53 knockdown.
Protocol: All cells were maintained in RPMI 1640 medium, supplemented with 10% FBS, 1 mM sodium pyruvate, 10 mM Hepes buffer, 55 nM β-mercaptoethanol and antibiotics. […] Cells with inhibited p53 expression were generated by retroviral transduction of pBabeH1-sip53 or pBabeH1-siGFP vectors for siRNA expression with following selection on puromycin.
Clonogenic survival. 5×10^3 cells were plated in 6-well plates and treated with different concentrations of drugs for 24 hours. Then fresh drug-free medium was added and the numbers of colonies were estimated 7-14 days later. Growth inhibition assay. […] Cell survival was estimated after an additional 48 hours, using standard Methylene Blue staining followed by extraction and colorimetrical detection of the dye.
Data set [2] deals with NF-κB. Nature of the data set: NF-κB-dependent reporter in H1299-NF-kBLuc cells. In kind it is cell-based, human. Particulars: for basal activity of NF-κB: H1299-NF-κBLuc cells, tested side-by-side with 9AA. Here is the method: (§1) Transient transfections. 2×10^5 cells were plated into 6-well plates and, after overnight incubation, transfected with Lipofectamin Plus reagent (Gibco BRL) with 0.5 μg of reporter plasmids (p21-ConALuc or pNF-κBLuc) in combination with different concentrations of plasmids expressing p53, Arf, Ss-IκB, or siHDM2. Corresponding empty vectors were added in all transfections up to 2 μg of total DNA. Normalization of transfection efficiency was done by adding 0.2 μg of pCMV-LacZ plasmid. Luciferase activity and β-galactosidase activity were measured in lysates prepared 48 hours after transfection with Cell Lysis Buffer (Promega) by the luciferase assay system (Promega) or β-galactosidase enzyme system (Promega). Luminometric and colorimetric reactions were read on the Wallack 1420 plate reader (Perkin Elmer). Stable transduction of reporters. 2×10^4 cells with integrated reporter were plated in 96-well plates. After overnight incubation, chemicals or media from lentivirus-producing cells were added. At different times, cell lysates were prepared using Reporter Lysis Buffer (Promega). Luciferase or β-galactosidase activity and protein concentration were measured in aliquots of cell lysates using standard kits (Promega, Luciferase and β-galactosidase assay systems, Biorad Protein Assay Kit).

Data set [3] relates to p53. The data set can be described thus: p53-responsive reporter activity in tumor cells (HT1080 and others). It counts as cell-based, human. How it is done:
as §1

Data set [4] deals with ACHN cells. The data set can be described thus: Experimental chemotherapy of tumor xenografts. In kind it is in vivo, nude mice. Particulars: ACHN xenograft nude mice; QC 50 mg/kg; 5-fluorouracil 35 mg/kg. How it is done:
NIH Swiss athymic nude, male mice, 5-6 weeks old, were purchased from Harlan. 5×10^6 tumor cells were inoculated into the flanks of mice in 100 μL of PBS. When tumors reached 5 mm in diameter, intraperitoneal injections of drugs were started in 100 μL of a solution of 50% DMSO in PBS (except for quinacrine, which was dissolved in PBS). As vehicle, 50% DMSO solution in PBS was used. Tumor size was measured in three dimensions every other day.

Data set [5] concerns p53. Nature of the data set: p53 reporter in organ cultures of human RCC tumor samples. The settings on record: organ cultures of adjacent normal kidney, 12 hours. In kind it is cell-based. How it is done:
FIG. 11. QC can activate p53 transactivation in organ cultures of human RCC tumor samples. Fresh surgically removed samples of tumor and adjacent normal kidney were cut into small pieces and put into media containing ConALacZ virus (5×10^7 TU/ml) with […] of polybrene for 4 hours. 24 hours after infection, tissue pieces (at least three per treatment) were incubated with media containing quinacrine or doxorubicin for 12 hours. Then the tissues were fixed for 30 min in PBS containing 0.5% glutaraldehyde and 1 mM MgCl2. Pieces of tumor were stained in PBS solution containing X-gal (1 mM MgCl2, 3.3 mM K4Fe(CN)6, 3.3 mM K3Fe(CN)6, 0.02% NP40, 0.2% X-gal) overnight at 37° C. Stained specimens were analyzed microscopically by squeezing pieces of tumor and normal tissues between two glass slides.

The test system of data set [6] is p53. The data set can be described thus: Screening for p53-activating compounds, p53-responsive reporter in RCC45ConALacZ cells. In kind it is cell-based, human. Here is the method:
as §1
The DiverSet library of 34,000 chemical compounds and focused libraries of structural analogues of selected hits were provided by Chembridge, Calif. Cell lines with p53- or NF-κB-responsive luciferase or β-galactosidase reporters were described previously (5, 7). For screening chemicals, 2×10^4 RCC45ConALacZ cells (RCC45-based p53 reporter cells) were plated per well of 96-well plates in 200 μL of phenol-red-free RPMI medium with standard additions. After overnight incubation, the compounds were added to final concentrations of 5-15 μM (0.2 μL of compound in DMSO per well). […] After 24 h, lysis buffer with ortho-nitrophenyl-β-D-galactopyranoside (ONPG) was added and β-galactosidase activity was estimated colorimetrically by a multiwell plate reader.

Setting [7] is: PLA2 inhibitors, data not shown.

Consider `CC[C@@]1(O)C(=O)OCc2c1cc1n(c2=O)Cc2cc3ccccc3nc2-1` [camptothecin], for which, in data set [1], the “toxicity to p53-deficient cells (p53 dependence of cytotoxicity)” value (shortened to “toxicity to p53-deficient cells”) is “equally or even more toxic than 9AA to p53-deficient cells”.

As for `CC[C@]1(O)C[C@@H]2CN(CCc3c([nH]c4ccccc34)[C@@](C(=O)OC)(c3cc4c(cc3OC)N(C)[C@H]3[C@@](O)(C(=O)OC)[C@H](OC(C)=O)[C@]5(CC)C=CCN6CC[C@]43[C@@H]65)C2)C1` [vinblastine], the “toxicity to p53-deficient cells” value in data set [1] was “equally or even more toxic than 9AA to p53-deficient cells”.

For `COc1cc(CNC(=O)CCCC/C=C/C(C)C)ccc1O` [capsaicin], the “basal activity of NF-κB” value in data set [2] is “did not reduce the basal activity”. Besides, the “activation of p53 by known NF-κB inhibitors” value in data set [3] (data not shown) is given as “capable of activating p53”.

`CCCCCCCCCCCCCCCCSC[C@H](COP(=O)(O)OCC[N+](C)(C)C)NC(=O)CCCCCCCCCCCCCCC` [thioetheramide-PC]: in data set [2] (setting [7]), the “inhibition of NF-κB” value is listed as “nor inhibit NF-κB”. In data set [3] (setting [7]), the “induction of p53” value is “could neither induce p53”.

`O=C(O)c1cc(/N=N/c2ccc(S(=O)(=O)Nc3ccccn3)cc2)ccc1O` [sulfasalazine]: the “basal activity of NF-κB” value in data set [2] is reported as “did not reduce the basal activity”. The “activation of p53 by known NF-κB inhibitors” value in data set [3] (data not shown) was “capable of activating p53”.

In the case of `CC(/C=C/C(=O)NO)=C\[C@@H](C)C(=O)c1ccc(N(C)C)cc1` [trichostatin A], the NF-κB-dependent transcription result in data set [2] (H1299 cells, 100 nM TSA, 4 or 16 hours) was “strong activation of NF-κB-dependent transcription”.

Consider `Cc1ccc(S(=O)(=O)/C=C/C#N)cc1` [Bay11-7082], for which the “basal activity of NF-κB” value in data set [2] is “did not reduce the basal activity”. Moreover, the “activation of p53 by known NF-κB inhibitors” value in data set [3] (data not shown) is “capable of activating p53”.

Turning to `O=c1[nH]cc(F)c(=O)[nH]1` [5-fluorouracil], the weight loss result in data set [4] is given as “up to 20%”.

As to `CC(=O)O[C@H]1C(=O)[C@@]2(C)[C@H]([C@H](OC(=O)c3ccccc3)[C@]3(O)C[C@H](OC(=O)[C@H](O)[C@@H](NC(=O)c4ccccc4)c4ccccc4)C(C)=C1C3(C)C)[C@]1(OC(C)=O)CO[C@@H]1C[C@@H]2O` [taxol], in data set [1], the “toxicity to p53-deficient cells” value is “equally or even more toxic than 9AA to p53-deficient cells”.

With `COc1cccc2c1C(=O)c1c(O)c3c(c(O)c1C2=O)C[C@@](O)(C(=O)CO)C[C@@H]3O[C@H]1C[C@H](N)[C@H](O)[C@H](C)O1` [doxorubicin], the “toxicity to p53-deficient cells” value in data set [1] is “equally or even more toxic than 9AA to p53-deficient cells”. Further, the “p53-responsive reporter induction in normal kidney samples” value in data set [5] is “no reporter induction”. Moreover, the “activation of the p53-dependent reporter (p53 transactivation) in RCC” value in data set [6] was “weakly activating”. In data set [3] (HT1080 cells), the “time of peak (maximum) p53 reporter activity” value is 8 to 12 h.
